Test [1] relates to KG1 cells. Kind of test: Systemic KG1 AML model survival. It counts as in vivo, NSG female mice. The settings on record: 5 mg/kg IP days 7, 10, 13, 16, 19 alone. The procedure: The potential relevance of these in vitro observations was assessed in NSG female mice with pre-existing disseminated KG1 cells and treated with a compound of Formula (I) (40 mg/kg, IP, QD for 14 days), 5-azacytidine (5 mg/kg, IP, administered on days 7, 10, 13, 16, and 19 (5 doses total)), or the combination of both compounds. Under the conditions of the assay, the median survival time of mice treated with saline alone or a compound of Formula (I) was 69.5 and 69 days, respectively (FIG. 9). Administration of a compound of Formula (I) with 5-azacytidine increased median survival time beyond that obtained with 5-azacytidine treatment alone (>104 days versus 88 days; P=0.014, FIG. 9).

Test [2] has as its system KG1 cells. Kind of test: Static adhesion of KG1 cells to E-selectin coated plates. It counts as cell-based, human. The settings on record: compared to control treated KG1 cells. The text has this: (§1) These findings indicate that hypomethylating agents, including 5-azacytidine, may increase the adhesion of leukemic blasts in the bone marrow and therefore hinder the intended anti-leukemic effect. This could explain a source of chemoresistance, and potential for relapse, in patients treated with hypomethylating agents.

A further test concerns KG1. The experiment in a line: Flow cytometry, binding of E-selectin-PE conjugate to KG1 cells. It counts as cell-based, human. The settings on record: 100 nM.
Source text: as §1

We go through one compound from patent US11707474B2, “Methods for treating acute myeloid leukemia and related conditions” (GlycoMimetics, Inc., priority 2018, dated 2023).

On to `Nc1ncn([C@@H]2O[C@H](CO)[C@@H](O)[C@H]2O)c(=O)n1` [5-azacytidine, reference compound], for which, in the test on KG1 cells [1], the median survival time is given as 88 days. Also, in the test on KG1 cells [2], the “increase in static adhesion to E-selectin coated plates” value was determined as 57%. For the same compound, the “increase in cell binding of E-selectin-PE conjugate” value in the test on KG1 was determined as 38%.
